Assay results from PMC6733874, “Zebrafish behavioural profiling identifies GABA and serotonin receptor ligands related to sedation and paradoxical excitation” (Nature Communications, 2019).

System: zebrafish
Type: in vivo
Details: average phenoscore at highest scoring treatment

Compound	phenoscore category
C[C@]12CC[C@@H](O)C[C@H]1CC[C@@H]1[C@@H]2CC[C@]2(C)[C@@H](C(=O)CO)CC[C@@H]12 [THDOC, tetrahydrodeoxycorticosterone]	intermediate (intermediate phenoscores (0.51 < x < 0.71))

Same assay, conditions: co-treatment; in words

Compound	effect on eASRs caused by HTR6 antagonists
CCc1[nH]c2ccc(OC)cc2c1CCN(C)C.O=C(O)C(=O)O [EMDT oxalate]	did not suppress eASRs

Same assay, conditions: dutasteride 3.0 μM + progesterone 2.5 μM

Compound	effect on progesterone's etomidate-like phenotype
C[C@]12C=CC(=O)N[C@@H]1CC[C@@H]1[C@@H]2CC[C@]2(C)[C@@H](C(=O)Nc3cc(C(F)(F)F)ccc3C(F)(F)F)CC[C@@H]12 [dutasteride]	suppressed

Same assay, conditions: larvae; low-volume acoustic stimulus

Compound	enhanced acoustic startle response (eASR) phenotype, in words
Fc1ccc2c(CCNCc3cccc(OCC(F)(F)C(F)F)c3)c[nH]c2c1 [idalopirdine]	reproducibly caused eASRs in vivo
O=C(Nc1c(-c2cccs2)nc2ccccn12)c1ccc(Cl)cc1 [DS2]	did not cause eASRs
COc1ccccc1N1CCN(C(=O)COc2ccc(Cl)cc2Br)CC1 [compound 5801496]	did not cause eASRs in vivo
Cc1cccc(C#Cc2ccccc2)n1 [MPEP]	reproducibly caused eASRs
O=C(c1ccccn1)c1cnn2c(-c3ccncc3)ccnc12 [ocinaplon]	produced a behavioral profile that resembled the negative
Oc1noc2c1CCNC2 [THIP, gaboxadol]	did not cause eASRs
CCOC(=O)c1cccc(N)c1 [tricaine]	not all anesthetics caused eASR behaviors
FC(F)OC(Cl)C(F)(F)F (stereo not shown) [isoflurane]	not all anesthetics caused eASR behaviors
CCC(C)N(C)C(=O)c1cc2ccccc2c(-c2ccccc2Cl)n1 (stereo not shown) [PK 11195]	caused eASRs in vivo
CCN(Cc1ccccc1)C(=O)Cn1c(=O)n(C)c2cnc(-c3ccccc3)nc21 [AC 5216]	caused eASRs in vivo

Same assay, conditions: zebrafish, in vivo

Compound	Phenoscore	eASR magnitudes in animals treated with M-current ligands	enhanced acoustic startle response (eASR) phenotype, in words
NC/C=C/C(=O)O [TACA]	0.07	–	–
COc1ccc(NC(=O)c2ccc(-c3ccc(-c4noc(C)n4)cc3C)cc2)cc1OCCN(C)C [SB-216641]	0.11	–	–
CCCN(CCC)C1CCc2cccc(O)c2C1 (stereo not shown) [8-HYDROXY-DPAT]	0.49	–	–
CN(C)CCn1cc(S(=O)(=O)c2cccc(F)c2)c2cccnc21 [WAY 208466]	0.21	–	–
CN(C)C/C=C(\c1ccc(Br)cc1)c1cccnc1.Cl.Cl.O [Zimelidine dihydrochloride monohydrate]	0.16	–	–
CN1CCc2cc3c(cc2[C@H]1[C@@H]1OC(=O)c2c1ccc1c2OCO1)OCO3 [bicuculline (-)]	0.05	–	–
CSc1ccc2c(c1)C(N1CCN(C)CC1)Cc1ccccc1S2 (stereo not shown) [METHIOTHEPIN]	0.33	–	–
O=C1c2ccccc2C(Cc2ccncc2)(Cc2ccncc2)c2ccccc21 [XE-991]	–	significantly increased	–
CN(C)CCCc1cc(C(=O)Nc2ccc(-c3ccncc3)cc2)ccc1O.Cl.Cl [GR 55562 DIHYDROCHLORIDE]	0.24	–	–
CC1(C)CC(=O)c2c(SCCO)sc(-c3nccs3)c2C1 [TB 21007]	0.12	–	–
NC(CCP(=O)(O)O)C(=O)O [L-AP4]	0.1	–	–
CCOC(=O)c1c(C)n(Cc2ccco2)c2ccc(OC)cc12 [compound 5943451]	0.37	–	–
Cc1nccn1CC1CCc2c(c3ccccc3n2C)C1=O.Cl (stereo not shown) [Ondansetron Hydrochloride]	0.13	–	–
O=C(N/N=C/c1ccccc1O)c1ccccc1O [SCS]	0.04	–	–
Cc1[nH]c2ccc(Cl)cc2c1C1=CCNCC1.Cl [EMD 386088 HYDROCHLORIDE]	0.15	–	–
Cc1cccc(C#Cc2ccccc2)n1 [MPEP]	0.73	–	–
NC[C@H](CC(=O)O)c1ccc(Cl)cc1 [R-Baclofen]	0.26	–	–
Br.COc1ccc(-c2ccc(=N)n(CCCC(=O)O)n2)cc1 [SR-95531]	0.21	–	–
O=C([O-])[C@H]1CCCC[C@H]1C(=O)Nc1cc(Cl)cc(Cl)c1.[Na+] [VU 0155041 Na Salt]	0.11	–	–
CC(N)Cc1c[nH]c2ccc(OCc3cccs3)cc12 (stereo not shown) [BW 723C86]	0.1	–	–
CC(N)Cc1c[nH]c2ccc(O)cc12 (stereo not drawn) [alpha-METHYLSEROTONIN]	0.18	–	–
COc1cc(Br)c(OC)c2c1[C@H](CN)C2 [TCB-2]	0.1	–	–
NCCc1c[nH]c2c(O)cc(O)cc12 [57-DIHYDROXYTRYPTAMINE]	0.05	–	–

Compound	Phenoscore	eASR magnitudes in animals treated with M-current ligands	enhanced acoustic startle response (eASR) phenotype, in words
CCN(CC)CCOC(=O)c1cc(Cl)c(N)cc1OC [SDZ-205557]	0.07	–	–
CCOC(=O)Nc1ccc(NCc2ccc(F)cc2)nc1N [flupirtine]	–	significantly decreased	–
NCCCC(=O)O [GABA]	0.21	–	–
O=C1N(c2ccccc2)c2ccccc2C1(Cc1ccncc1)Cc1ccncc1 [linopirdine]	–	significantly increased	–
CCOC(=O)c1cc2c(cn1)[nH]c1ccccc12 [β-CCE]	0.37	–	–
CCc1c(C(=O)OC)ncc2[nH]c3cc(OC)c(OC)cc3c12 [DMCM]	0.54	–	–
COc1ccccc1N1CCN(C(=O)c2ccc(C(=O)c3c(C)cc(C)cc3C)cc2)CC1 [compound 5352629]	0.48	–	–
COc1ccc(S(=O)(=O)Nc2cc(Cl)cc(Cl)c2OC)cc1N1CCNCC1.Cl [SB 399885 hydrochloride]	0.16	–	–
COc1ccc2c(c1)c(CCN(C)C)cn2S(=O)(=O)c1ccccc1.O=C(O)C(=O)O [MS 245 OXALATE]	0.09	–	–
O=C1CCCN1CC#CCN1CCCC1 [oxotremorine]	–	significantly increased	–
O=C(O)/C=C\C(=O)O.c1ccc2nc(N3CCNCC3)ccc2c1 [Quipazine maleate salt]	0.16	–	–
CNc1cc(NS(=O)(=O)c2ccc(N)cc2)nc(NC)n1 [Ro 04-6790]	0.11	–	–
CN1CCc2cc3c(cc2[C@H]1[C@@H]1OC(=O)c2c1ccc1c2OCO1)OCO3 [bicuculline (+)]	0.23	–	–
COc1cc(CC(C)N)c(OC)cc1I.Cl (stereo not shown) [DOI HYDROCHLORIDE]	0.1	–	–
Cc1cccc([C@H](C)c2cnc[nH]2)c1C [dexmedetomidine]	–	–	not all anesthetics caused eASR behaviors
Cc1c(OCc2cccc(-c3ccc(C(=O)O)cc3)c2)cc2c(c1C)C(=O)C(C1CCCC1)C2 (stereo not shown) [Biphenylindanone A]	0.11	–	–
N[C@@H](Cn1ccc(=O)n(Cc2ccccc2C(=O)O)c1=O)C(=O)O [UBP 302]	0.17	–	–
Cc1[nH]c2ccc(Cl)cc2c1CCN(C)C.O=C(O)C(=O)O [ST 1936 OXALATE]	0.09	–	–
O=C(Nc1cnc(Cl)nc1)c1ccc(F)c(F)c1 [ICA-069673]	–	significantly decreased	–
CCOC(=O)c1ncn2c1[C@@H]1CCCN1C(=O)c1cc(OC)ccc1-2 [L-655,708]	0.51	–	–
O=C(Nc1ccc(Cl)c(Cl)c1)c1ccc(Cl)cc1Cl [compound 7136301]	0.42	–	–
CN1CC(=O)NC1=NC(=O)Nc1cccc(Cl)c1 [Fenobam]	0.3	–	–

System: human GABAARs (α1β2 and α1β2γ2)
Type: cell-based
Details: compound at 20 uM then 5 uM GABA; DMSO = 1
Description: To determine if these compounds targeted human GABAARs, we tested them in a fluorescent imaging plate reader (FLIPR) assay on HEK293 cells transfected with α1β2 and α1β2γ2 human GABAAR subtypes. […]. […] While some of the compounds appeared to function in this assay as negative allosteric modulators (NAMs), reductions in fluorescence were likely due to toxicity-induced cell loss (Fig. 2f, Supplementary Table 5).
We used the FLIPR system (Molecular Devices) to quantify GABA-evoked activity of human GABAARs. We chose a membrane potential dye (Molecular Devices) to measure changes in membrane potentials and stably transfected HEK293 cells that expressed α1, β2 and γ2. Since we observed an increase in GABA-evoked responses when transfected with γ2 transiently, we describe the cells as having a low level of γ-subunit expression, indicating heterogeneity of GABAAR compositions in the cell (α1β2 or α1β2γ2). To assay for direct agonists, fluorescence was subtracted pre- and post compound addition. To assay for PAMs, cells were treated with compound at 20 uM and then with 5 uM GABA.

Compound	Ave Norm FLIPR Score
Cc1cccc(OCCn2c(NC(=O)c3ccco3)nc3ccccc32)c1 [compound 7273455]	7.892
O=C(Nc1c(C(=O)Nc2ccc(Cl)cc2)cnn1-c1ccccc1)c1ccco1 [compound 5583877]	36.71
Clc1ccc(CSc2nc3ccccc3[nH]2)cc1 [compound 5551268]	-1.463
CCc1cc2c(=O)c(-c3ccccc3Cl)coc2cc1O [compound 7014338]	-6.27
CCOC(=O)Nc1sc(C)c(CC)c1C(=O)OCC [compound 5695025]	32.27
Nc1ccc(OC(F)(F)F)cc1C(=O)c1ccccc1 [compound 7113584]	-2.455
COC(=O)c1sc(NC(=O)C2CCCO2)c(C(=O)OC)c1C (stereo not shown) [compound 5690842]	12.09
COc1cc(OC)cc(C(=O)Nc2ccc(Cl)cc2C(F)(F)F)c1 [compound 6376886]	32.44
Cc1cc(C)n2c(SCc3ccc(C(=O)c4ccccc4)cc3)nnc2n1 [compound 7166683]	-1.302
CCOC(=O)c1c(NC(=O)C2CCCC2)sc2c1CCCC2 [compound 7282929]	17.15
CC(=O)c1c(C)nc2n(Cc3ccccc3)c3ccccc3n12 [compound 5573728]	27.62
CC(=O)/N=C(/Nc1cccc(C(F)(F)F)c1)Nc1nc(C)cc(C)n1 [compound 5869570]	15.04
CCCCNc1c(C(=O)OCC)c(C)nc2c1cnn2CC [tracazolate]	50.14

Same assay, conditions: compound at 20 uM then 5 uM GABA; Positive/Negative

Compound	FLIPR Results
Cc1cccc(OCCn2c(NC(=O)c3ccco3)nc3ccccc32)c1 [compound 7273455]	Positive
O=C(Nc1c(C(=O)Nc2ccc(Cl)cc2)cnn1-c1ccccc1)c1ccco1 [compound 5583877]	Positive
CCOC(=O)Nc1sc(C)c(CC)c1C(=O)OCC [compound 5695025]	Positive
CCCC(C)C1(CC)C(=O)NC(=S)NC1=O (stereo not shown) [thiopental]	Positive
COC(=O)c1sc(NC(=O)C2CCCO2)c(C(=O)OC)c1C (stereo not shown) [compound 5690842]	Positive
COc1cc(OC)cc(C(=O)Nc2ccc(Cl)cc2C(F)(F)F)c1 [compound 6376886]	Positive
CCOC(=O)c1c(NC(=O)C2CCCC2)sc2c1CCCC2 [compound 7282929]	Positive
CC(=O)c1c(C)nc2n(Cc3ccccc3)c3ccccc3n12 [compound 5573728]	Positive
CC(=O)/N=C(/Nc1cccc(C(F)(F)F)c1)Nc1nc(C)cc(C)n1 [compound 5869570]	Positive
CCCCNc1c(C(=O)OCC)c(C)nc2c1cnn2CC [tracazolate]	Positive

Same assay, conditions: in the presence of GABA

Compound	GABAAR PAM activity in FLIPR, in words
CCCCNc1c(C(=O)OCC)c(C)nc2c1cnn2CC [tracazolate]	increased fluorescence in the presence of GABA
